Test results taken from patent US11096923B2, “Pharmaceutical composition containing polymyxin B/trimethoprim based therapeutics” (University of Rochester, priority 2016, dated 2021).

Legend:
P. aeruginosa [1] = assay: MIC of clinical P. aeruginosa ocular isolates (antibiotic susceptibility profiles); type: cell-based, Pseudomonas aeruginosa; conditions: for MIC: Pseudomonas aeruginosa, read-out: Minimum Inhibitory Concentration
Excerpt: A series of genotyping and biological assays were used as a preliminary means to evaluate the clonality of clinical P. aeruginosa isolates collected, as follows. Genomic DNA was purified from each isolate using Qiagen DNeasy kits (Hilden, Germany) and used as a template for polymerase chain reactions to detect the presence of the virulence factors exoS, exoY, exoU, exoT, and perV using previously published primers (Table 1). See Allewelt M, Coleman F T, Grout M, Priebe G P, Pier G B. Acquisition of expression of the Pseudomonas aeruginosa ExoU cytotoxin leads to increased bacterial virulence in a murine model of acute pneumonia and systemic spread. Infection and immunity 2000; 68:3998-4004, Lomholt J A, Poulsen K, Kilian M. Epidemic population structure of Pseudomonas aeruginosa: evidence for a clone that is pathogenic to the eye and that has a distinct combination of virulence factors. Infection and immunity 2001; 69, and Ledbetter E C, Mun J J, Kowbel D, Fleiszig S M. Pathogenic phenotype and genotype of Pseudomonas aeruginosa isolates from spontaneous canine ocular infections. Investigative ophthalmology & visual science 2009; 50. […] See Institute C. Performance Standards for Antimicrobial Susceptibility Testing: Twenty-fifth Informational Supplement. Each isolate's ability to form biofilms was quantified. To do so, wells of a polystyrene plate containing 72-hour established biofilms were washed with 0.8% NaCl to remove non adherent cells and stained with crystal violet. To quantify biofilm staining, plates were washed 3 times with H2O, stain was suspended in 30% glacial acetic acid and the optical density (OD600nm) of each well was determined using an automated plate reader, as previously described. See Jacobs A C, Blanchard C E, Catherman S C, Dunman P M, Murata Y. An ribonuclease T2 family protein modulates Acinetobacter baumannii abiotic surface colonization. PloS one 2014; 9.

P. aeruginosa PAO1 = assay: Selleck library screen in presence of sub-inhibitory polymyxin B/trimethoprim; type: cell-based, Pseudomonas aeruginosa; design: key: Growth (+); no growth (−); conditions: for P. aeruginosa growth, 5 μM: drug 5 μM in presence of 0.2 μg ml^−1 polymyxin B/trimethoprim; for P. aeruginosa growth, 50 μM: drug 50 μM in presence of 0.2 μg ml^−1 polymyxin B/trimethoprim
Method: (§1) To identify agents that potentiate the antimicrobial activity of polymyxin B/trimethoprim we first determined the highest concentration of the polymyxin B/trimethoprim combination that allowed growth of P. aeruginosa strain PAO1 and S. aureus strain UAMS-1.
For Selleck library screening, individual wells of 96-well microtiter plates containing 88 μl of fresh media were inoculated with approximately 10^5 CFUs of P. aeruginosa strain PAO1 or S. aureus UAMS-1. Next, 2 μl of polymyxin B/trimethoprim was added to a final concentration of 0.2 μg ml^−1 or 1.25 μg ml^−1 for PA01 and UAMS-1, respectively. Library members were then added at either 5 μM or 50 μM final concentration. Plates were incubated at 37° C. for 16 hours and hits were identified as wells with no visible growth. […]

S. aureus = assay: Fractional inhibitory concentration, checkerboard MIC; type: cell-based, Staphylococcus aureus; conditions: S. aureus UAMS-1
P. aeruginosa biofilm = test system: P. aeruginosa biofilm; design: key: Killing (+) of established biofilms; conditions: established biofilms; adenylate kinase reporter; Blanchard et al., 2016; cited from earlier work
S. aureus UAMS-1 = assay: Selleck library screen in presence of sub-inhibitory polymyxin B/trimethoprim; type: cell-based, Staphylococcus aureus; design: key: Growth (+); no growth (−); conditions: for S. aureus growth, 5 μM: drug 5 μM in presence of 1.2 μg ml^−1 polymyxin B/trimethoprim; for S. aureus growth, 50 μM: drug 50 μM in presence of 1.2 μg ml^−1 polymyxin B/trimethoprim
Method: as §1
For Selleck library screening, individual wells of 96-well microtiter plates containing 88 μl of fresh media were inoculated with approximately 10^5 CFUs of P. aeruginosa strain PAO1 or S. aureus UAMS-1. Next, 2 μl of polymyxin B/trimethoprim was added to a final concentration of 0.2 μg ml^−1 or 1.25 μg ml^−1 for PA01 and UAMS-1, respectively. Library members were then added at either 5 μM or 50 μM final concentration. Plates were incubated at 37° C. for 16 hours and hits were identified as wells with no visible growth.
To do so, 10^5 CFUs of S. aureus strain UAMS-1 were inoculated in individual wells of a microtiter plate supplemented with 1.2 μg ml^−1 of polymyxin B/trimethoprim, (0.25×MIC). Library members were added at low (5 μM) or high (50 μM) concentrations and then scored for agents that inhibited growth following overnight incubation. Such agents were expected to represent compounds that display antimicrobial activity on their own and/or that potentiate the antimicrobial activity of polymyxin B/trimethoprim.

P. aeruginosa [2] = assay: Fractional inhibitory concentration, checkerboard MIC; type: cell-based, Pseudomonas aeruginosa
MRSA keratitis isolates = MRSA keratitis isolates collected between 1993 and 2012; cited from earlier work
[3] = P. aeruginosa ocular isolate RW01 (cornea)
[4] = P. aeruginosa ocular isolate RW02 (cornea)
[5] = P. aeruginosa ocular isolate RW03 (cornea)
[6] = P. aeruginosa ocular isolate RW04 (conjunctiva)
[7] = P. aeruginosa ocular isolate RW05 (cornea)
[8] = P. aeruginosa ocular isolate RW06 (cornea)
[9] = P. aeruginosa ocular isolate RW07 (cornea)

| Molecule | P. aeruginosa growth, 5 μM (P. aeruginosa PAO1) | P. aeruginosa growth, 50 μM (P. aeruginosa PAO1) | P. aeruginosa biofilm AK Signal (P. aeruginosa biofilm) | S. aureus growth, 5 μM (S. aureus UAMS-1) | S. aureus growth, 50 μM (S. aureus UAMS-1) | also measured |
| --- | --- | --- | --- | --- | --- | --- |
| CC1(C)S[C@@H]2[C@H](NC(=O)[C@H](N)c3ccccc3)C(=O)N2[C@H]1C(=O)O [Ampicillin, ampicillin] |  |  |  |  |  | MIC (P. aeruginosa [1]; [3]): 50 µg/mL; MIC (P. aeruginosa [1]; [4]): 50 µg/mL; MIC (P. aeruginosa [1]; [5]): 50 µg/mL; MIC (P. aeruginosa [1]; [6]): 50 µg/mL; MIC (P. aeruginosa [1]; [7]): 100 µg/mL; MIC (P. aeruginosa [1]; [8]): 100 µg/mL; MIC (P. aeruginosa [1]; [9]): 50 µg/mL |
| N[C@@H]1CCCCN(c2c(F)cc3c(=O)c(C(=O)O)cn(C4CC4)c3c2Cl)C1 [Besifloxacin, besifloxacin] | − | − | + | − | − | MIC in combination (S. aureus; PT combined with besifloxacin): 0.06 µg/mL; MIC (S. aureus; Staphylococcus aureus): 0.12 µg/mL; MIC in combination (P. aeruginosa [2]; P. aeruginosa PAO1, PT combined with besifloxacin): 0.78 µg/mL; MIC (P. aeruginosa [2]; Pseudomonas aeruginosa, PAO1, P. aeruginosa PAO1): 1.56 µg/mL |
| CO/N=C(\C(=O)N[C@@H]1C(=O)N2C(C(=O)O)=C(CSc3nc(=O)c(=O)[nH]n3C)CS[C@H]12)c1csc(N)n1 [Ceftriaxone, ceftriaxone] |  |  |  |  |  | MIC (P. aeruginosa [1]; [3]): 13 µg/mL; MIC (P. aeruginosa [1]; [4]): 26 µg/mL; MIC (P. aeruginosa [1]; [5]): 26 µg/mL; MIC (P. aeruginosa [1]; [6]): 26 µg/mL; MIC (P. aeruginosa [1]; [7]): 13 µg/mL; MIC (P. aeruginosa [1]; [8]): 52 µg/mL; MIC (P. aeruginosa [1]; [9]): 26 µg/mL |
| NC1CCN(c2c(F)cc3c(=O)c(C(=O)O)cn(C4CC4)c3c2Cl)C1 (stereo not shown) [Clinafloxacin, clinafloxacin] | − | − | + | − | − |  |
| CN1C[C@@H]2C[C@H]1CN2c1cc2c(cc1F)c(=O)c(C(=O)O)cn2C1CC1 [Danofloxacin, danofloxacin] | − | − | + | − | − |  |
| CCN1CCN(c2cc3c(cc2F)c(=O)c(C(=O)O)cn3C2CC2)CC1 [Enrofloxacin, enrofloxacin] | − | − | + | − | − |  |
| C[C@H]1COc2c(N3CCN(C)CC3)c(F)cc3c(=O)c(C(=O)O)cn1c23 [Levofloxacin, levofloxacin] | − | − |  | + | − |  |
| CCn1cc(C(=O)O)c(=O)c2cc(F)c(N3CCNC(C)C3)c(F)c21 (stereo not shown) [Lomefloxacin, lomefloxacin] | − | − | + | − | − |  |
| CC1CCc2c(N3CCC(O)CC3)c(F)cc3c(=O)c(C(=O)O)cn1c23 (stereo not shown) [Nadifloxacin, nadifloxacin] | − | − | + | − | − |  |
| CCn1cc(C(=O)O)c(=O)c2cc(F)c(N3CCN(C)CC3)cc21 [Pefloxacin, pefloxacin] | − | − | + | − | − |  |
| CO[C@H]1/C=C/O[C@@]2(C)Oc3c(C)c(O)c4c(c3C2=O)C2=NC3(CCN(CC(C)C)CC3)NC2=C(NC(=O)/C(C)=C\C=C\[C@H](C)[C@H](O)[C@@H](C)[C@@H](O)[C@@H](C)[C@H](OC(C)=O)[C@@H]1C)C4=O [Rifabutin, rifabutin] | − | − | + | − | − |  |
| CO[C@H]1/C=C/O[C@@]2(C)Oc3c(C)c(O)c4c(O)c(c(/C=N/N5CCN(C6CCCC6)CC5)c(O)c4c3C2=O)NC(=O)/C(C)=C\C=C\[C@H](C)[C@H](O)[C@@H](C)[C@@H](O)[C@@H](C)[C@H](OC(C)=O)[C@@H]1C [Rifapentine, rifapentine] | − | − | + | − | − |  |
| CO[C@H]1/C=C/O[C@@]2(C)Oc3c(C)c(O)c4c(O)c(c5c(nc6cc(C)ccn65)c4c3C2=O)NC(=O)/C(C)=C\C=C\[C@H](C)[C@H](O)[C@@H](C)[C@@H](O)[C@@H](C)[C@H](OC(C)=O)[C@@H]1C [Rifaximin, rifaximin] | − | − | + | − | − |  |
| O=C(O)c1cn(-c2ccc(F)cc2)c2cc(N3CCNCC3)c(F)cc2c1=O [Sarafloxacin, sarafloxacin] | − | − | + | − | − |  |
| N[C@@H]1CN(c2c(F)cc3c(=O)c(C(=O)O)cn([C@@H]4C[C@@H]4F)c3c2Cl)CC12CC2 [Sitafloxacin, sitafloxacin] | − | − | + | − | − |  |
| C[C@@H]1CN(c2c(F)c(N)c3c(=O)c(C(=O)O)cn(C4CC4)c3c2F)C[C@H](C)N1 [Sparfloxacin, sparfloxacin] | − | − | + | − | − |  |
| COc1c(N2CCNC(C)C2)c(F)cc2c(=O)c(C(=O)O)cn(C3CC3)c12 (stereo not shown) [gatifloxacin] |  |  |  |  |  | isolates displaying resistance (MRSA keratitis isolates): ~45.9% |
| Cc1cc(NS(=O)(=O)c2ccc(N)cc2)no1 [sulfamethoxazole] |  |  |  |  |  | isolates displaying resistance (MRSA keratitis isolates): 5.7% |
| gentamycin |  |  |  |  |  | Minimum Inhibitory Concentration (P. aeruginosa [1]; [3]): 0.24 µg/mL; Minimum Inhibitory Concentration (P. aeruginosa [1]; [4]): 0.24 µg/mL; Minimum Inhibitory Concentration (P. aeruginosa [1]; [5]): 0.12 µg/mL; Minimum Inhibitory Concentration (P. aeruginosa [1]; [6]): 0.48 µg/mL; Minimum Inhibitory Concentration (P. aeruginosa [1]; [7]): 0.48 µg/mL; Minimum Inhibitory Concentration (P. aeruginosa [1]; [8]): 0.48 µg/mL; Minimum Inhibitory Concentration (P. aeruginosa [1]; [9]): 0.24 µg/mL |
| neomycin |  |  |  |  |  | Minimum Inhibitory Concentration (P. aeruginosa [1]; [3]): 9.8 µg/mL; Minimum Inhibitory Concentration (P. aeruginosa [1]; [4]): 9.8 µg/mL; Minimum Inhibitory Concentration (P. aeruginosa [1]; [5]): 9.8 µg/mL; Minimum Inhibitory Concentration (P. aeruginosa [1]; [6]): 19.6 µg/mL; Minimum Inhibitory Concentration (P. aeruginosa [1]; [7]): 1 µg/mL; Minimum Inhibitory Concentration (P. aeruginosa [1]; [8]): 9.8 µg/mL; Minimum Inhibitory Concentration (P. aeruginosa [1]; [9]): 1 µg/mL |
